Test [1] has as its system aortic intimal smooth muscle cells (I-SMC). As to the kind of experiment: Inhibitory effects on proliferation of aortic intimal smooth muscle cells (cell count). The test is classed as cell-based, atherosclerotic Japanese white rabbit. As to conditions: Oryctolagus cuniculus, fold increase of cell number second to fifth day, read-out: Inhibition (%) Intima; for inhibition at 10 µM: drug concentration 10^-5 M; for inhibition at 1 µM: drug concentration 10^-6 M. Here is the method:
(§1) The inhibitory effects of the compounds of the present invention on the proliferation of I-SMC and M-SMC were measured by the following methods. […] After twice or three times subculture of cells, the cells in the state of confluency were trypsinized and suspended in the above medium so that the cell density would be 20,000 cells/ml. Then, the 10,000 cells were seeded and cultured on a 24 well multi-well plate. After incubation for 6 hours, the medium was replaced by 0.5 ml of a control medium or a medium containing a test compound. At the same time, the number of cells initially attached to the plate was counted and taken as the initial cell number (I). The test compound was added to the medium as described in Example 1. As the control, DMSO was added alone so that the final concentration would be 0.2%. The medium change was carried out every 2 days, and on the first, second, third, fifth and seventh days, the cells were trypsinized and suspended in Isoton and counted cell number by a Coulter counter. The obtained results were represented by an average number of cells of three wells in each case, and the inhibition (%) of the fold increase of the cell number from the second day to the fifth day was calculated in accordance with the following formula.

Test [2] relates to aortic medial smooth muscle cells (M-SMC). In words: Inhibitory effects on migration of aortic medial smooth muscle cells (Boyden's chamber). The test is classed as cell-based, Sprague Dawley male rat. As to conditions: migration of rat M-SMC, drug concentration 10^-5 M, 4 hours. On the procedure: The inhibitory effects of the compounds of the present invention on migration of M-SMC were measured by the following methods. Arterial medial slices of the thoracic of aorta of a Sprague Dawley male rat were cultured by using a medium of Dulbecco's Modified Eagle (DME) containing 10% fetal bovine serum (FBS) at 37° C. in an atmosphere comprising 95% of air and 5% of carbon dioxide for 3 or 4 weeks. The aortic medial smooth muscle cells grown from the arterial medial slices were subcultured by 1:2 split of cell density for stable subculture. After the three or four times subculture, the cells in the state of confluency were subjected to trypsinized and then suspended in the above medium at a cell density of 500,000 cells per ml. To the cell suspension, a test compound dissolved in dimethylsulfoxide (DMSO) was added so that the final DMSO concentration would be 0.2%, and the cell suspension was pre-incubated at 37° C. for 30 minutes. As a control, DMSO was added alone at the same concentration. In the lower compartment of Boyden's chamber partitioned with a nitrocellulose membrane, 10 ng/ml of a platelet-derived growth factor (PDGF) or DME medium containing a 10% SMC-conditioned DME medium (SMC-CM) obtained from 48 hours conditioning was filled as a migration factor. In the upper compartment thereof, 1 ml of the cell suspension was loaded, and incubation was conducted at 37° C. for 4 hours in a culture condition. As the blank, the DME medium without migration factor was filled in the lower compartment. After 4 hour incubation, the cells adhered to the upper side of the nitrocellulose membrane were removed, and the cells migrated to the lower side of the membrane were fixed and stained by Diff Quik. The number of migrated cells was counted in the 10 fields by a light microscope at 400 x HPF.

The test system is the same in test [3]. As to the kind of experiment: Inhibitory effects on proliferation of aortic medial smooth muscle cells (cell count). The format is cell-based, healthy Japanese white rabbit. The settings on record: Oryctolagus cuniculus, fold increase of cell number second to fifth day, read-out: Inhibition (%) Media; for inhibition at 10 µM: drug concentration 10^-5 M; for inhibition at 1 µM: drug concentration 10^-6 M. On the procedure:
as §1

In test [4] the test system is aortic intimal smooth muscle cells (I-SMC). In words: Inhibitory effect on 3H-thymidine uptake in aortic intimal smooth muscle cells. As to conditions: Oryctolagus cuniculus, 24 hours with compound, read-out: Inhibition (%) Intima; for inhibition at 10 µM: drug concentration 10^-5 M; for inhibition at 1 µM: drug concentration 10^-6 M. The test is classed as cell-based, atherosclerotic Japanese white rabbit. On the procedure:
(§2) The inhibitory effects of the compound of the present invention on ^3 H-thymidine uptake in I-SMC and M-SMC were measured by the following methods. M-SMC and I-SMC are obtained from aortic media of a healthy Japanese white rabbit and from aortic intima of an atherosclerotic Japanese white rabbit as mentioned in Example 2. After three or four times subculture, the cells in the state of confluency were trypsinized and suspended in a DME medium containing 10% of FBS and an antibiotic so that the cell density would be 40,000 cells/ml. The 10,000 cells were seeded to a 48 well multi-well plate. After 4 days culture, the medium was replaced by the control medium or the medium containing a test compound as used in Example 2, and culture was continued for 24 hours. Then, 1 μCi ([…]) of ^3 H-thymidine was added thereto, and culture was continued for 3 hours. The cells were washed three times with a phosphate buffered physiological saline (PBS) and treated with chilled 5% trichloroacetic acid (TCA). The insoluble-fraction was washed with chilled TCA and then dissolved in a 0.5N potassium hydroxide aqueous solution. The ^3 H radioactivity was measured by a liquid scintillation counter and the protein content was measured. […] The inhibition (%) was calculated in accordance with the following formula.

Test [5] deals with aortic medial smooth muscle cells (M-SMC). As to the kind of experiment: Inhibitory effect on 3H-thymidine uptake in aortic medial smooth muscle cells. The format is cell-based, healthy Japanese white rabbit. As to conditions: Oryctolagus cuniculus, 24 hours with compound, read-out: Inhibition (%) Media; for inhibition at 10 µM: drug concentration 10^-5 M; for inhibition at 1 µM: drug concentration 10^-6 M. On the procedure:
as §2

The test system of test [6] is leukemic cells (HL-60). In words: Inhibitory effects against adhesion of leukemic cells (HL-60) induced by TPA. The format is cell-based. As to conditions: Homo sapiens, HL-60, TPA-induced, 48 hours pretreatment; for inhibition at 10 µM: drug concentration 10^-5 M. On the procedure:
The inhibitory effects of the compounds in the present invention on cell adhesion of HL-60 were measured by the following methods. HL-60 cells were cultured in a RPMI 1640 medium containing 10% of FBS and an antibiotic at 37° C. in an atmosphere comprising 95% of air and 5% of carbon dioxide and then seeded to a 6 well multi-well plate in an amount of 2 ml per well at a cell density of 1,000,000/ml. A test compound dissolved in DMSO was added so that the final DMSO concentration would be 0.2%, and incubation was carried out for 48 hours for pretreatment. Then, 500,000 cells were seeded to a 24 well multi-well plate, and 0.02 mM of phorbol myristate acetate (TPA) dissolved in ethanol, was added in an amount of 1/250 (v/v) of the culture medium, and then culture was continued for 12 hours. After that, the cells were washed with PBS and the cells attached to the well plates were scraped off by trypsinization and suspended in Isoton, and the number of cells were counted by a Coulter counter. A control test was carried out by adding DMSO alone.

Test [7] relates to J774 macrophages (J774-M.phi.). In words: Inhibitory effects against adhesion of J774 macrophages. The format is cell-based. As to conditions: Mus musculus, 48 hours pretreatment; for inhibition at 10 µM: drug concentration 10^-5 M; for inhibition at 1 µM: drug concentration 10^-6 M. On the procedure: The inhibitory effects of the compounds in the present invention on cell adhesion of J774-M.phi. were measured by the following methods. […] Then, culture was continued with a control medium containing 0.2% of DMSO or with a medium containing a test compound for 48 hours as pretreatment. Then, the cells were scraped by means of a rubber policeman and suspended in the above medium. 200,000 cells were seeded to a 24 well multi-well plate., and cultured for 12 hours. After that, the cells attached to the well plates were scraped by a rubber policeman, and the number of cells was counted by a Coulter counter. The obtained results are represented by an average value of the number of cells in three wells at the time of the pretreatment, in each case, and the inhibition (%) on the adhesion was calculated in accordance with the following formula.

Setting [8] is: migration factor 10 ng/ml PDGF, read-out: Inhibition (%) PDGF.
Setting [9] is: migration factor 10% SMC-conditioned medium, read-out: Inhibition (%) SMC-CM.

This is an account of results in patent US6162798A, “Inhibitor of atherosclerotic intimal thickening” (priority 1991, dated 2000).

For orientation: inhibition means the change of the read-out against control, counted positive when it falls. `Cc1nn(C)c2nc(C3CC3)c(/C=C/[C@@H]3C[C@@H](O)CC(=O)O3)c(-c3ccc(F)cc3)c12` (relative stereo) [Test compound 2, (E)-trans-6-(2'-[6"-cyclopropyl-1',3'-dimethyl-4'-(4'"-fluorophenyl)pyrazolo[3,4-b]pyridin-5"-yl]ethenyl)-4-hydroxy-3,4,5,6-tetrahydro-2H-pyran-2-one]: the inhibition at 10 µM in test [1] worked out at 98.2%; in test [2] (setting [8]), 98.2%; in test [2] (setting [9]), 32.8%; in test [3], 86.5%; in test [4] it was 91.5%; in test [5], 88.4%. Besides, the inhibition at 1 µM was 84.6% in test [1], 4.7% in test [3], 11.7% in test [4] and 36.4% in test [5].

In the case of `CCc1c(C)sc2nc(C3CC3)c(/C=C/[C@@H]3C[C@@H](O)CC(=O)O3)c(-c3ccc(F)cc3)c12` (relative stereo) [Test compound 3, (E)-trans-6-(2'-[2'-cyclopropyl-5'-ethyl-3'-(4'"-fluorophenyl)-6'-methylthieno[2,3-b]pyridin-3'-yl]ethenyl)-4-hydroxy-3,4,5,6-tetrahydro-2H-pyran-2-on], the inhibition at 10 µM was 96.4% in test [6]; 100% in test [1]; 100% in test [2] (setting [8]); 41.7% in test [2] (setting [9]); 100% in test [3]; 94.1% in test [4]. In addition, the results for the inhibition at 10 µM in test [5] and in test [7] were 92.2% and 92.4%, respectively. Also, the inhibition at 1 µM in test [6] (drug concentration 10^-6 M) came out at 92.2%; in test [1], 100%; in test [3], 31.5%; in test [4], 69.9%; in test [5], 53.6%; in test [7], 92.2%. Further, the inhibition at 0.1 µM in test [6] (drug concentration 10^-7 M) was 4.8%.

Take `CC[C@H](C)C(=O)O[C@H]1C[C@H](O)C=C2C=C[C@H](C)[C@H](CC[C@@H](O)C[C@@H](O)CC(=O)O)[C@H]21` [Pravastatin, reference compound]: the inhibition at 10 µM was -2.8% in test [6]; 1.3% in test [1]; 61.8% in test [2] (setting [8]); 26.2% in test [2] (setting [9]); -11.7% in test [3]; -7.2% in test [4]. In addition, the inhibition at 10 µM in test [5] was -34.3%; in test [7], 41.3%. In addition, the inhibition at 1 µM was 1.3% in test [1]; 8.7% in test [3]; -7% in test [4]; 8.7% in test [5]; 40% in test [7].
